From the supplement of paper PMC12076712

Tests used:
Test in all cases: pIC50, kinobeads binding competition
Conditions in all cases: cell material: Jurkat lysate
[1] = target: T1, UniProt Q9Y2U5
T1 sequence (whole entry): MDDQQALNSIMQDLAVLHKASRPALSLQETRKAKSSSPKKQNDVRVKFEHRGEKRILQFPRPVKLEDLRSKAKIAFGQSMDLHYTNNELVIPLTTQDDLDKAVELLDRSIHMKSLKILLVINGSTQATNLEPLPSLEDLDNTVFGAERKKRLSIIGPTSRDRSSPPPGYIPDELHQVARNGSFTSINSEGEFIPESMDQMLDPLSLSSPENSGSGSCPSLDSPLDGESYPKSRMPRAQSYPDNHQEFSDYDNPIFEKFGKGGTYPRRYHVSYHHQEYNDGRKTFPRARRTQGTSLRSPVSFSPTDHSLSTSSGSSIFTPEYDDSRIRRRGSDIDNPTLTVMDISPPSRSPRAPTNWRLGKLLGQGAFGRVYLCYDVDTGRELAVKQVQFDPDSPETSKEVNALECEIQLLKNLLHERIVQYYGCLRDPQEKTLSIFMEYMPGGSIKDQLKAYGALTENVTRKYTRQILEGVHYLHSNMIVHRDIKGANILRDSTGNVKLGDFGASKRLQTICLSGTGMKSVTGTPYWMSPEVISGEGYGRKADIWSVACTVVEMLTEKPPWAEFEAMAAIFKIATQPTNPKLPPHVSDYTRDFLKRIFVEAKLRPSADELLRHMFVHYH

[2] = target: PIK3R4 (UniProt Q99570)
[3] = target: UniProt Q14289
[4] = target: MAST4 (UniProt O15021)
[5] = target: T2, MASTL (UniProt Q96GX5)
T2 sequence (whole entry): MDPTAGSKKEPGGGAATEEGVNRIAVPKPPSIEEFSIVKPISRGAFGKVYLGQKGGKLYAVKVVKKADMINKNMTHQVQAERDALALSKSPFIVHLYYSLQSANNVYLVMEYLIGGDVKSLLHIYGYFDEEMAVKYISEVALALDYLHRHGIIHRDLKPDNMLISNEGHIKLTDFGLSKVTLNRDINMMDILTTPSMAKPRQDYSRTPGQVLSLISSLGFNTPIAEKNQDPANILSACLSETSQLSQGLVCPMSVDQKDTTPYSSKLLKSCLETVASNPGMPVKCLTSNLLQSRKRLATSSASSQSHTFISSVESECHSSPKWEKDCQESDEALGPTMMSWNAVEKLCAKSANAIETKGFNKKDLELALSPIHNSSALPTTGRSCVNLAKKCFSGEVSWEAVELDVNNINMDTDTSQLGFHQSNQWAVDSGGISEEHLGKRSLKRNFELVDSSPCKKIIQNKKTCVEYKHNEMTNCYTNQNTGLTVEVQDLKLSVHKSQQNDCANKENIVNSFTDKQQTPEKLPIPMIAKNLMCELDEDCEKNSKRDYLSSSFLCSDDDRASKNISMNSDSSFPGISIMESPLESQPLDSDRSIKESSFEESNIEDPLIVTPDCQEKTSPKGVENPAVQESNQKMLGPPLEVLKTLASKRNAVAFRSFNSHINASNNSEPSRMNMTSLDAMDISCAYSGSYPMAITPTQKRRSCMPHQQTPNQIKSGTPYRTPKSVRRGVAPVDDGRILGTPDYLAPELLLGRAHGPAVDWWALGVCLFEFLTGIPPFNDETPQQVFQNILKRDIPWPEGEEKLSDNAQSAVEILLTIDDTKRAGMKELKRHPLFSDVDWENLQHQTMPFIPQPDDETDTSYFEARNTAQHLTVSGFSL

[6] = target: T3, GAK (UniProt O14976)
T3 sequence (whole entry): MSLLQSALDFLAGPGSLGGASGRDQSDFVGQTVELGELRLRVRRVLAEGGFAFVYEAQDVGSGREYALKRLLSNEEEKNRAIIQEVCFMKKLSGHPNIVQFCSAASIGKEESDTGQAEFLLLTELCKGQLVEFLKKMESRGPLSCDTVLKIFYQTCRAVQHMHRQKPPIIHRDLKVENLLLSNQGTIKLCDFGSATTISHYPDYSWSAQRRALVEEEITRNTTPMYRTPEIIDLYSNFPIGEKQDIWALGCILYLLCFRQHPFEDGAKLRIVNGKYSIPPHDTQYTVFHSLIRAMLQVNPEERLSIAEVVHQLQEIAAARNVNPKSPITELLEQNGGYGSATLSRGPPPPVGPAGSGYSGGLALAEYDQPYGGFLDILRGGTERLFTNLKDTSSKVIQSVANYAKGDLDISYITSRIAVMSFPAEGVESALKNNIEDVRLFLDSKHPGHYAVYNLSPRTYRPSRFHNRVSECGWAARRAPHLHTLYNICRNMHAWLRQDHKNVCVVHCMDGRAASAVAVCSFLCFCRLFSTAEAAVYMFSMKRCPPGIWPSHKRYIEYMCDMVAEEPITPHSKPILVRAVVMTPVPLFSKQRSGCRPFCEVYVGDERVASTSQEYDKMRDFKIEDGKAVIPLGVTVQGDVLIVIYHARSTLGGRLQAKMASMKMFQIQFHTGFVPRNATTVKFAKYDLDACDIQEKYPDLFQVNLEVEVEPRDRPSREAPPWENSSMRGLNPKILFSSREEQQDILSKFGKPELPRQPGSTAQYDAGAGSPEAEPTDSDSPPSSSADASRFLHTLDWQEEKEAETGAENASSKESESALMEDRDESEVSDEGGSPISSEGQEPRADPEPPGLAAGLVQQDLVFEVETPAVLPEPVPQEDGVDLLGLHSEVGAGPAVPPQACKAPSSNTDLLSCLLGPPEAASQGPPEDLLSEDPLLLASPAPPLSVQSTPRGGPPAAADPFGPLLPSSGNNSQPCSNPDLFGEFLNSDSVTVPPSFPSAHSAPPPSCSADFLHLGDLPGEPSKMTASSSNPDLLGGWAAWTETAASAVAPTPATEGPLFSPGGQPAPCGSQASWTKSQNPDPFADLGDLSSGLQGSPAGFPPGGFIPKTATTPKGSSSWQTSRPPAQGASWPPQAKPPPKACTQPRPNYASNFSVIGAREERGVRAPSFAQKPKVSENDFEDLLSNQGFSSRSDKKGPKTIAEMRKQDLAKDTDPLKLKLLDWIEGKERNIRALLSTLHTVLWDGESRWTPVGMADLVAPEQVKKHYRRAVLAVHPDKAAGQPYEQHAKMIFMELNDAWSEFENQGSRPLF

[7] = target: PIM3 (UniProt Q86V86)

Measured: pIC50

Sequence of MAST4 (O15021 whole entry): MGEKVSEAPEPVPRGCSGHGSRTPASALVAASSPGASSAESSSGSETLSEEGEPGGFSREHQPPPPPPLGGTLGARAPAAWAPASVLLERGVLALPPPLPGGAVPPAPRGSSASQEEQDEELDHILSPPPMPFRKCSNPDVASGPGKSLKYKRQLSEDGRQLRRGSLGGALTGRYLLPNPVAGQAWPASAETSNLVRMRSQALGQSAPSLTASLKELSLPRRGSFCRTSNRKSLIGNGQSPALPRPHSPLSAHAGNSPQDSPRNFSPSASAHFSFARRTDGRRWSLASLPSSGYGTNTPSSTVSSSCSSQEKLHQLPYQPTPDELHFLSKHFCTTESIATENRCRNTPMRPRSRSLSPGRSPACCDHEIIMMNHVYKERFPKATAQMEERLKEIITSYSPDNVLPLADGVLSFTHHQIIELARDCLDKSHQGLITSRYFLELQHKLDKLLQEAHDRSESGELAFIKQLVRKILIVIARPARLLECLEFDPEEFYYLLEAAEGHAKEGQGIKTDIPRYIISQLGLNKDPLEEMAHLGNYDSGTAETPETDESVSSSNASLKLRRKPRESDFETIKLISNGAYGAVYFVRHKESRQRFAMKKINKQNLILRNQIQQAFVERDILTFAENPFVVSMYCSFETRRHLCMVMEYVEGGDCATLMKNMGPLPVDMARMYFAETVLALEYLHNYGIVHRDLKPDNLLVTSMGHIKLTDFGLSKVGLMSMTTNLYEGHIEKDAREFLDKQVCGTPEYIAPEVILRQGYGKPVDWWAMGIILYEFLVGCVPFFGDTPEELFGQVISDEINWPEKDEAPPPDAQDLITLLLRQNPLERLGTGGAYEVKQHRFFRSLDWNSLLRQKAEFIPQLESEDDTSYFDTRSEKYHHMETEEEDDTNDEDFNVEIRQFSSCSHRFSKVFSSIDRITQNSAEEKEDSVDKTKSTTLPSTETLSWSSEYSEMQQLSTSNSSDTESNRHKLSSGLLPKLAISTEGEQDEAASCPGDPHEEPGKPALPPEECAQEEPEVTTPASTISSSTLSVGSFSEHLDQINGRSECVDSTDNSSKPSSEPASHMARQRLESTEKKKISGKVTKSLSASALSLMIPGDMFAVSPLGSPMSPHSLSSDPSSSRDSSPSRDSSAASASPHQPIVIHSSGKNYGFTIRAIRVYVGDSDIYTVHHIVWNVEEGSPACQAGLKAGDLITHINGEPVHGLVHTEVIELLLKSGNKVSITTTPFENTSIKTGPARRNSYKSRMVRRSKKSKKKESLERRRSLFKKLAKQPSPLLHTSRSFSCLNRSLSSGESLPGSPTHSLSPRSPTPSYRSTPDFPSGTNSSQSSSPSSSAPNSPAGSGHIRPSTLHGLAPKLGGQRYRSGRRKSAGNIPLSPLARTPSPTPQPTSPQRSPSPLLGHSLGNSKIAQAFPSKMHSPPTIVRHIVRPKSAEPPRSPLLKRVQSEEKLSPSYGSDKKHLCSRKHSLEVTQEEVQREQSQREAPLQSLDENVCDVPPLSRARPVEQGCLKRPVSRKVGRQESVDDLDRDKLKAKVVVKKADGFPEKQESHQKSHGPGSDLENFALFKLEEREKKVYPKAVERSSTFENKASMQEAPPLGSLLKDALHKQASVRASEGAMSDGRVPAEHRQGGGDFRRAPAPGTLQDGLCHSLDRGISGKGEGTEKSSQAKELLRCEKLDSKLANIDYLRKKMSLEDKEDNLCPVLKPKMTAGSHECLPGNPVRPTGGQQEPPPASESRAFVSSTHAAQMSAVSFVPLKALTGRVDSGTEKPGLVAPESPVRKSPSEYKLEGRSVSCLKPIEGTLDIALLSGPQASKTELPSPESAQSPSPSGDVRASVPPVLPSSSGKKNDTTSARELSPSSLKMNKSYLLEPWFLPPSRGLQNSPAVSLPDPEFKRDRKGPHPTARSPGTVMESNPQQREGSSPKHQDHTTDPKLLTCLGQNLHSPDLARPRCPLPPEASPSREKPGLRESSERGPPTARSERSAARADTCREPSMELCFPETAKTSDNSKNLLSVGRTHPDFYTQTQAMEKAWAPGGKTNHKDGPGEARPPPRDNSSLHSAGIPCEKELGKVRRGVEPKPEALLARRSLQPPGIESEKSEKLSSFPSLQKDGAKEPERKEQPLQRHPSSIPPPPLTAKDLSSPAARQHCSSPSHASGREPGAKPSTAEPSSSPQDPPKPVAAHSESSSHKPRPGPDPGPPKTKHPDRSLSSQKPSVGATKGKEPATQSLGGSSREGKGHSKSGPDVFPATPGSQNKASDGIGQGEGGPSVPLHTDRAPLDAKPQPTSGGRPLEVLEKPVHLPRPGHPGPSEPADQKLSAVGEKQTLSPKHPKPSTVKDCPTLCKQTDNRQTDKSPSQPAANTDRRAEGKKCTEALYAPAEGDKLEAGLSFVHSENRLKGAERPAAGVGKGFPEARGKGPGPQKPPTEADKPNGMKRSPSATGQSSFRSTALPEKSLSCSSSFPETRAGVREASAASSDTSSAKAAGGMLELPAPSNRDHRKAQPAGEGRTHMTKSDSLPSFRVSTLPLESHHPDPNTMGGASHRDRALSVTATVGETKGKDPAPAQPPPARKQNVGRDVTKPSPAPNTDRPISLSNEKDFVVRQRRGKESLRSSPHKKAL
Sequence of UniProt Q14289 (Q14289 whole entry, looked up): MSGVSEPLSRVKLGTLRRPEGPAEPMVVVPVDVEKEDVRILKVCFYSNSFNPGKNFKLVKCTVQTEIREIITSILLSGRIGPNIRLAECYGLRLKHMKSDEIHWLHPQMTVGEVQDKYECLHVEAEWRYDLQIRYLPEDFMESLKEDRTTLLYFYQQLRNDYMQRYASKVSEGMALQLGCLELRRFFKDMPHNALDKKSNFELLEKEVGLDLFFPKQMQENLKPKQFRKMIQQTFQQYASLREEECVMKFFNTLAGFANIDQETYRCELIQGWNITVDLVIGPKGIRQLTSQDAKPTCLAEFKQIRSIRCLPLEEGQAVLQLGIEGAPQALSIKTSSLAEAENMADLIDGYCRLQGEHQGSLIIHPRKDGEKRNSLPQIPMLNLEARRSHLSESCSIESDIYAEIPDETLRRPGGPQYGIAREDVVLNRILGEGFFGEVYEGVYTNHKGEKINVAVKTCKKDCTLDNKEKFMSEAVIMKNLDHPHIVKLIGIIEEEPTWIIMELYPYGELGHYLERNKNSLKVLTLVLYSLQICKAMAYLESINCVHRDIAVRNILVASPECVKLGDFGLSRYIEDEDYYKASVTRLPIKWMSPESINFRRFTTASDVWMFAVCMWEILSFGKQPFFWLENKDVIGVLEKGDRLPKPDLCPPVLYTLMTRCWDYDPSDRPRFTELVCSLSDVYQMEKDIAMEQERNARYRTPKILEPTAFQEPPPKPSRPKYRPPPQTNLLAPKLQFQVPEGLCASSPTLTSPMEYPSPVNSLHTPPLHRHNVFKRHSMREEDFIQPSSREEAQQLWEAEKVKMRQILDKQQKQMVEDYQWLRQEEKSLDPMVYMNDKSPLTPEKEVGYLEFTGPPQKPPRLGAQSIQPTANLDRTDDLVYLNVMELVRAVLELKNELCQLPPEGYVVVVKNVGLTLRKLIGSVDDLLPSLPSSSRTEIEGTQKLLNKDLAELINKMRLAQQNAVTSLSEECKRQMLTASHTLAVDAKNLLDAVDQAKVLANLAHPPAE

CCc1cnn2c(NCc3ccc[n+]([O-])c3)cc(N3CCCC[C@H]3CCO)nc12 [dinaciclib]
< 4.52: all assays above
